From patent publication US5383848A, “Iontophoretic administration of drugs” (Gensia, Inc., priority 1991, dated 1995)
Where “and” joins values, the source holds several entries; their conditions need not be identical. Identical values can stand only once. Entries after “also recorded” stand apart in the source; their conditions may differ.

How the values were obtained:
elevated heart rate [1] = assay: In vivo dog experiments: heart rate offset after iontophoretic ESA drug with pretreatment (Example A); set-up: species or system labrador dogs; conditions: for Offset Slope Component (0-5) min: 0-5 min after heart rate begins to decline; for Offset Slope Component (5-10) min: 5-10 min after decline begins; for Offset Slope Component (10-30) min: 10-30 min after decline begins; for Change in Heart Rate (peak minus baseline) / Peak Heart Rate: Table II; for Onset Slope: baseline at onset time to peak heart rate; for Offset time: drug delivery stopped until within 20 bpm of baseline; for Offset Slope: drug shut-off to 20 bpm above baseline; for Delay: drug shut-off to start of heart rate decline; for t 1/2 of elevated heart rate decay: exponential fit; for Onset time: start of delivery to start of increase in heart rate; for Time Start Decline: time when elevated heart rate began to decline
elevated heart rate [2] = assay: Additional in vivo dog experiments: dermal clearance enhancer pretreatment then arbutamine TDI (Example C); set-up: species or system labrador dogs
Description: Additional experiments were performed to study the effect of certain compositions on the offset time and dermal clearance in dogs.
In these experiments, the formulation to be tested was applied either topically or by transdermal iontophoresis (TDI) as described below.
Six labrador dogs (20 to 30 kg) were trained to lie quietly on a table. Before each experiment, three ECG electrodes (one lead) were applied on shaved areas of the back (near the front legs) to obtain the heart rate. The outer hind leg area (either right or left) was shaved prior to each experiment, with care taken not to cut or visibly damage the skin. The area was cleaned with soap and water and the skin was then […] using an alcohol swab followed by skin preparation with 3M One-Step-Prep™ tape.
Each vasodilator that was delivered by TDI used a 1.8 cm^2 electrode (Graphic Controls, Buffalo, N.Y.) containing the vasodilator in a gel at the concentrations listed in experimental methods section. In all experiments, an indifferent electrode containing a phosphate-buffered-saline gel was applied to the skin in conjunction with the electrode containing the vasodilator. Each vasodilator tested was applied for 10 minutes using a current of 0.6 mA/cm^2. During this time the heart rate was continuously recorded (at 5 second intervals) with the ESA Research System. The delivery electrodes were then removed, and any excess gel adhering to the skin was gently removed using a tissue.
Each topically applied vasodilator was applied to the skin in a volume of approximately 0.25 ml. The agent was allowed to absorb into the skin, during which time the heart rate was continuously recorded for 10 minutes using the ESA Research System.
To test if heat alone would produce sufficient vasodilation, a 60° C. hot pack was applied to the skin 10 minutes prior to drug delivery, during which time the heat rate was continuously recorded by the ESA System. Once drug delivery electrodes were applied, the heat pack was reheated and placed on top of them for the duration of the study.
The purpose of this treatment was to produce an elevated heart rate response of at least 40 beats-per-minute above baseline lasting for at least 30 minutes.
^1/ The dose (ITCA) was calculated by multiplying the applied current density (mA/cm^2) by the duration of delivery (minutes) and the drug concentration (%) and the area of the electrode (cm^2). […] The units of ITCA are mA.minutes.
The important variables for this analysis are:
1) delay between time when drug administration was stopped and start of decline in heart rate;
2) the time (minutes) to reach successive percent levels (i.e. 10, 20, 30, 40, and 50% decline) from the point of maximum change in heart rate^2.
3) the half-life (minutes) of the heart rate decline obtained from an exponential fit of the offset slope.
A combination of over-the-counter (OTC) and proprietary formulations were selected for comparison. […] Two dogs received each treatment at least one time.
The six dogs are identified in the table as BA, BB, BO, MI, PO and SA, followed by the experimental identification number. These dogs received control (no pretreatment) and five DCE pretreatment regimens.

[3] = Redness/irritation index of topical formulations on human volunteers (Example B); conditions: for Redness/irritation index, Mean: 7 subjects
Description: In these experiments data were collected from seven human volunteers concerning the effects of topical dermal clearance enhancers. […] Observations were recorded at 10, 20, and 30 minute intervals. The following redness/irritation index was used to categorize vasodilation/irritation:
0=no redness, i.e., erythema;
W=Wheal irritation, i.e., edemic core surrounded by an erythemic ring; and
The presence of vasodilation was determined by degree of redness of the skin. Wheal irritation was signified by the presence of an erythemic ring surrounding an upraised pale center. Whitening was denoted by a pale area with no upraising or redness.

[4] = Table VII, single dog run, listed as 1% Tolazoline

c1ccc(CC2=NCCN2)cc1 [Tolazoline]
Offset Slope Component (0-5) min (elevated heart rate [1]; listed as 5): -0.90 beats per minute per minute
Offset Slope Component (0-5) min (elevated heart rate [1]; listed as 6): -1.40 beats per minute per minute
Offset Slope Component (5-10) min (elevated heart rate [1]; listed as 5): -3.30 beats per minute per minute
Offset Slope Component (5-10) min (elevated heart rate [1]; listed as 6): -3.90 beats per minute per minute
Percent decline in heart rate, ranking (elevated heart rate [1]; 10-20 minute interval, FIG. 1): greatest percent decline
Offset Slope Component (10-30) min (elevated heart rate [1]; listed as 5): -0.70 beats per minute per minute
Offset Slope Component (10-30) min (elevated heart rate [1]; listed as 6): -0.58 beats per minute per minute
Delay to onset of heart rate decline, ranking (elevated heart rate [1]; FIG. 2): shortest delay
Heart rate decay half-life, ranking (elevated heart rate [1]; FIG. 2): relatively short half-lives
Reduction in heart rate offset (elevated heart rate [1]; FIGS. 3 and 4): dramatic reduction in heart rate offset
Change in Heart Rate (peak minus baseline) (elevated heart rate [1]; listed as 5): 53 bpm
Peak Heart Rate (elevated heart rate [1]; listed as 5): 119 bpm
Change in Heart Rate (peak minus baseline) (elevated heart rate [1]; listed as 6): 33 bpm
Peak Heart Rate (elevated heart rate [1]; listed as 6): 121 bpm
Total time (startup) thru offset plateau: w/in 20 bpm of baseline (elevated heart rate [1]; Table IV): 34 min
Total time (startup) thru offset plateau: reached baseline (elevated heart rate [1]; Table IV, listed as 5): 60 min
Total time (startup) thru offset plateau: reached baseline (elevated heart rate [1]; Table IV, listed as 6): 30 min
Onset Slope (elevated heart rate [1]; listed as 5): 4.70 beats per minute per minute
Onset Slope (elevated heart rate [1]; listed as 6): 3.50 beats per minute per minute
Offset time (elevated heart rate [1]; listed as 5): 34.00 min
Offset time (elevated heart rate [1]; listed as 6): 8.00 min
Offset Slope (elevated heart rate [1]; listed as 5): -1.00 beats per minute per minute
Offset Slope (elevated heart rate [1]; listed as 6): -3.20 beats per minute per minute
Delay (elevated heart rate [1]; listed as 5): 2.00 min
Delay (elevated heart rate [1]; listed as 6): 4.00 min
t 1/2 of elevated heart rate decay (elevated heart rate [1]; Table IV, listed as 5): 14.06 min
t 1/2 of elevated heart rate decay (elevated heart rate [1]; Table IV, listed as 6): 6.77 min
Reduction in offset time (elevated heart rate [1]; iontophoretic pre-delivery): found effective when pre-delivered iontophoretically; also recorded: significant reduction in offset time
Onset time (elevated heart rate [1]; listed as 5): 10.00 min
Onset time (elevated heart rate [1]; listed as 6): 7.00 min
Time Start Decline (elevated heart rate [1]; listed as 5): 20.00 min
Time Start Decline (elevated heart rate [1]; listed as 6): 21.00 min
Dermal clearance enhancement (elevated heart rate [1]; topical pretreatment): no measurable dermal clearance enhancement
CHANGE IN HEART RATE, Mean (elevated heart rate [2]; Table VII, mean of runs): 80.64 BPM
DELAY TIME, Mean (elevated heart rate [2]; Table VII, mean of runs): 2.76 min
HALF-LIFE, Mean (elevated heart rate [2]; Table VII, mean of runs): 16.35 min
TIME TO REACH 10% DECLINE IN HEART RATE, Mean (elevated heart rate [2]; Table VII, mean of runs): 6.44 min
TIME TO REACH 20% DECLINE IN HEART RATE, Mean (elevated heart rate [2]; Table VII, mean of runs): 9.83 min
TIME TO REACH 30% DECLINE IN HEART RATE, Mean (elevated heart rate [2]; Table VII, mean of runs): 13.40 min
TIME TO REACH 40% DECLINE IN HEART RATE, Mean (elevated heart rate [2]; Table VII, mean of runs): 18.38 min
TIME TO REACH 50% DECLINE IN HEART RATE, Mean (elevated heart rate [2]; Table VII, mean of runs): 27.16 min
CHANGE IN HEART RATE (elevated heart rate [2]; [4]): 53.00 BPM and 101.93 BPM and 80.67 BPM and 84.26 BPM and 93.54 BPM and 69.23 BPM and 92.75 BPM and 67.50 BPM and 97.31 BPM and 84.22 BPM and 64.17 BPM and 87.58 BPM and 72.15 BPM
DELAY TIME (elevated heart rate [2]; [4]): 2.00 min and 5.28 min and 0.67 min and 1.33 min and 1.77 min and 5.27 min and 1.81 min and 0.39 min and 0.00 min and 0.22 min and 4.43 min and 8.02 min and 4.65 min
TIME TO REACH 10% DECLINE IN HEART RATE (elevated heart rate [2]; [4]): 7.24 min and 9.14 min and 2.56 min and 9.27 min and 4.71 min and 8.58 min and 4.56 min and 4.31 min and 2.17 min and 4.63 min and 6.46 min and 9.64 min and 10.49 min
TIME TO REACH 20% DECLINE IN HEART RATE (elevated heart rate [2]; [4]): 8.85 min and 12.89 min and 4.46 min and 15.49 min and 7.55 min and 12.60 min and 10.28 min and 12.20 min and 4.12 min and 7.66 min and 8.49 min and 11.25 min and 11.90 min
TIME TO REACH 30% DECLINE IN HEART RATE (elevated heart rate [2]; [4]): 10.45 min and 16.35 min and 6.18 min and 20.96 min and 10.17 min and 19.78 min and 19.70 min and 14.89 min and 7.47 min and 11.55 min and 10.55 min and 12.87 min and 13.30 min
TIME TO REACH 40% DECLINE IN HEART RATE (elevated heart rate [2]; [4]): 12.29 min and 19.40 min and 7.61 min and 26.43 min and 14.58 min and 30.11 min and 28.29 min and 17.58 min and 12.20 min and 26.06 min and 12.63 min and 16.89 min and 14.83 min
TIME TO REACH 50% DECLINE IN HEART RATE (elevated heart rate [2]; [4]): 19.86 min and 22.45 min and 9.04 min and 31.33 min and 21.82 min and 35.27 min and 60.00 min and 20.27 min and 19.92 min and 66.00 min and 14.68 min and 20.44 min and 18.05 min
HALF-LIFE (elevated heart rate [2]; heart rate decline, Table VII, single dog run, listed as 1% Tolazoline): 5.75 min and 10.87 min and 20.60 min and 12.81 min and 18.60 min and 18.02 min and 11.30 min
response in screening study (elevated heart rate [2]; two dogs per treatment): most pronounced response

COC(=O)c1ccccc1O [Methyl Salicylate, Methyl salicylate]
Redness/irritation index, Mean ([3]; 10 min): 0
Redness/irritation index ([3]; 10 min, subject CV): 0
Redness/irritation index ([3]; 10 min, subject four): 0
Redness/irritation index ([3]; 10 min, subject one): 0
Redness/irritation index ([3]; 10 min, subject three): 0
Redness/irritation index ([3]; 10 min, subject two): 0
Redness/irritation index, Mean ([3]; 20 min): 0
Redness/irritation index ([3]; 20 min, subject CV): 0
Redness/irritation index ([3]; 20 min, subject three): 0
Redness/irritation index ([3]; 20 min, subject two): 0
Redness/irritation index, Mean ([3]; 30 min): 0
Redness/irritation index ([3]; 30 min, subject CV): 0
Redness/irritation index ([3]; 30 min, subject three): 0
Redness/irritation index ([3]; 30 min, subject two): 0
